The results in this text go back to patent EP0576227A2, “2'-Deoxy-2',2'-difluoro(2,6,8-substituted) purine nucleosides having anti-viral and anti-cancer activity and intermediates” (ELI LILLY AND COMPANY, priority 1992, dated 1993).

One may read the IC50 as the concentration at which inhibition is half-maximal.

In brackets after ≈: the same amount, converted by molar mass.

For series [1], the system named is human leukemia cells (CCRF-CEM cell line). The series is described as follows: Growth inhibition of human leukemia cells (CCRF-CEM cytotoxicity screen). It counts as cell-based. Conditions: Homo sapiens, CCRF-CEM. The text has this:
In another aspect, the invention provides a method of treating susceptible neoplasms in mammals comprising administering to a mammal in need of such treatment a pharmaceutically effective amount of a compound of formula (I). […] The treatment contemplated by the present method includes both medical therapeutic and prophylactic treatment, as appropriate. The specific dosage level of the compound administered according to this invention will, of course, be determined by the circumstances surrounding the case, including, for example, the particular compound administered, the route of administration, and the condition being treated. The compounds are effectively administered orally, topically, or parenterally. […] The representative compounds of formula (I) employed in the present invention are cytotoxic as they inhibit the growth of rapidly dividing human leukemia cells (CCRF-CEM cell line). Table 1 below gives the results of testing several compounds representative of formula (I).

The subject of series [2] is HC1 human colon carcinoma. The series is described as follows: HC1 human colon carcinoma xenograft in mice, tumor weight inhibition. It counts as in vivo, Nu/Nu CD-1 mice. Conditions: 14 day delay. The source says:
The HC1 human colon carcinoma xenograft was obtained in 1987 from Drs. Peter and Janet Houghton, St. Jude Children's Hospital, Memphis, TN. The tumor is a moderately well-differentiated adenocarcinoma of the ascending colon [British Journal of Cancer, 37, p 213-223 (1987)]. The first passage tumor was stored in liquid nitrogen using standard techniques. The tumors were maintained in serial passage Nu/Nu CD-1 mice (Charles River Laboratories, Portage, MI.).
The study testing the efficacy of these compounds against HC1 human colon carcinoma was initiated by removing a tumor from passage animals and mincing it into 1 to 3 mm square fragments using sterile techniques. Tumor pieces were checked for sterility using both an Antibiotic Medium 1 and Brain Heart Infusion (Difco; Detroit, MI). Tumor pieces were implanted subcutaneously in the auxilary region of recipient mice by trocar. Drug therapy on the appropriate schedule was initiated 14 days after tumor implantation. Drugs were dissolved in Emulphor for all experiments. All animals were weighed at the beginning and end of drug treatment. Food and water were provided ad libitum. On day 14 after the initiation of therapy, two dimensional measurements (width and length) of all tumors were taken using electronic calipers interfaced to a computer. Tumor weights were calculated from these measurements using the following formula: Tumor Weight (mg) = Tumor Length (mm) X Tumor Width (mm)²/2
For all data, the tumor weight was rounded to the nearest tenth of a gram for analysis. No group is included in the analysis for therapeutic activity in which deaths attributable to drug toxicity exceeded 20 percent of the treated group. Compounds are considered active if more than 60 percent inhibition of tumor growth, as determined by tumor weight, is achieved at maximally tolerated doses.
In Table 2 which follows, Column 1 gives the example number of the compound tested; Column 2, the dose level; Column 3, the route administered; Column 4, the dosage schedule; Column 5, the percent inhibition of the tumor; and Column 6; the toxic deaths observed prior to completion of the study.
For orientation: Xenograft models place foreign cells or tissue in a host animal.

The subject of series [3] is Human Cytomegalovirus (HCMV) strain AD169. The series is described as follows: Human Cytomegalovirus Test (plaque inhibition in WI-38 cells). It counts as cell-based. To be noted: read-out: Percent Plaque Inhibition at Specified µg/ml conc. How it is done:
WI-38 cells (American Type Culture Collection; CCL-35) were seeded into 24-well plates in MEM media (GIBCO) supplemented with 10% fetal bovine serum and penicillin/streptomycin. The plates wre incbated at 37°C, in 5 percent carbon dioxide in a humidified incubator for 3 days. Human Cytomegalovirus (HCMV) strain AD169 (American Type Culture Collection) was added to each well (40 plaque forming unites in 100 µl of media) and the virus was allowed to adsorb to the cells for 2 hours at room temperature. The compound of Example 5 was dissolved in 100 percent dimethylsulfoxide at a concentration of 20 mgs/ml and diluted with media to yield final concentrations of 50, 25, 12.5, 6.25, 3.13, 1.6, 0.8, 0.4, 0.2, and 0.1 µg/ml in one set of experiments and 32, 10, 3.2, 1, and 0.32 µg/ml in another set of experiments. Each concentration was done in duplicate. In all experiments, Cytovene (DHPG) was used as a positive control.
The infected cells were incubated for 10 days at 37°C, 5 percent carbon dioxide, in an humidified incubator without changes of media. After incubation, the cells were fixed for at least 15 minutes with 10 percent formalin and rinsed with water. After rinsing, the cells were stained for at least 15 minutes with crystal violet and allowed to dry. HCMV induced plaques were counted with the aid of an iverted microscope. The number of viral plaques appearing in cells treated with each concentration of the Example 5 compound was compared to the number of viral plaques in cells left untreated ("no-drug control") and the percent inhibition of viral plaque formation was calculated. The concentration of the Example 5 compound required to inhibit viral plaque formation by 50 percent was determined using linear regression analysis.

[4] abbreviates: 05 mg/kg, Intra-Peritoneal 0.5 ml, 1,3,5,7 9.
The mark [5] stands for this setting: 10 mg/kg, Intra-Peritoneal 0.5 ml, 1,3,5,7 9.
Where [6] appears, read: 20 mg/kg, Intra-Peritoneal 0.5 ml, 1,3,5,7 9.
Setting [7] is: 40 mg/kg, Intra-Peritoneal 0.5 ml, 1,3,5,7 9.
The mark [8] stands for this setting: 80 mg/kg, Intra-Peritoneal 0.5 ml, 1,3,5,7,9.

With `CNc1nc(N)nc2c1ncn2[C@@H]1O[C@H](CO)[C@@H](O)C1(F)F` [Example 5, 2-deoxy-2,2-difluoro-D-ribofuranosyl-1-β-(2-amino-6-methylaminopurine)], in series [1], 0.054 µg/mL (≈ 0.171 µM) corresponded to half-maximal inhibition (IC50). In addition, the “Percent Inhibition of Tumor” value in series [2] (setting [4]) was determined as 92%; in series [2] (setting [5]), 92%; in series [2] (setting [6]), 93%; in series [2] (setting [7]) it was 94%; in series [2] (setting [8]), 95%. The “Toxic Deaths” value in series [2] (setting [4]) is 0/8; in series [2] (setting [5]), 0/8; in series [2] (setting [6]) it was 0/8; in series [2] (setting [7]) it was 1/8; in series [2] (setting [8]), 0/8. Moreover, in series [3] (Human betaherpesvirus 5, AD169, 240 h, 0.2 µg/ml, WI-38 cells, 10 days), the inhibition at 0.2 µg/mL turned out to be 24%. In addition, in series [3] (Human betaherpesvirus 5, AD169, 240 h, 0.4 µg/ml, WI-38 cells, 10 days), the inhibition at 0.4 µg/mL stood at 17.2%. Further, the inhibition at 0.8 µg/mL in series [3] (Human betaherpesvirus 5, AD169, 240 h, 0.8 µg/ml, WI-38 cells, 10 days) was determined as 38%. The inhibition at 1.6 µg/mL in series [3] (Human betaherpesvirus 5, AD169, 240 h, 1.6 µg/ml, WI-38 cells, 10 days) is 41.4%. In series [3] (Human betaherpesvirus 5, AD169, 240 h, 6.25 µg/ml, WI-38 cells, 10 days), the inhibition at 6.25 µg/mL was 86.2%. The inhibition at 12.5 µg/mL in series [3] (Human betaherpesvirus 5, AD169, 240 h, 12.5 µg/ml, WI-38 cells, 10 days) amounted to 81%. Also, in series [3] (Human betaherpesvirus 5, AD169, 240 h, 25 µg/ml, WI-38 cells, 10 days), the inhibition at 25 µg/mL was found to be 89.6%. Besides, the inhibition at 3.12 µg/mL in series [3] (Human betaherpesvirus 5, AD169, WI-38, 240 h) was 62%.
